From patent publication US6429212B1, “Medicinal composition” (Ishihara Sangyo Kaisha Ltd., priority 1996, dated 2002)

Legend:
aminopeptidase N = aminopeptidase N (Homo sapiens, UniProt P15144); assay: Inhibitory effect to aminopeptidase N (L-alanine-7-amido-4-methylcoumarin substrate, MOLT-4 cells, fluorescence); assay type: biochemical; settings: based on fluorescence intensity of the control fraction (Table 13, Test Example 9)
Protocol: As the substrate buffer solution, 100 mM Hepes buffer solution pH 7.6 (including 120 mM sodium chloride, 5 mM potassium chloride, 1.2 mM magnesium sulfate and 0.5% bovine serum albumin) was used. After the reaction was finished, fluorescence intensity was measured by using MTP-32 Colonna microplate reader (produced by Colonna Electric) under measurement condition at an excitation wavelength of 380 nm and at an emission wavelength of 440 nm. […] The values in the Table are based on fluorescence intensity of the control fraction, and represent the enzyme-inhibitory activity as IC50 (μg/ml).

[1] = target: T1, human platelet derived endothelial cell growth factor (thymidine phosphorylase) (Homo sapiens, UniProt P19971); assay: Inhibitory activity to platelet derived endothelial cell growth factor (thymidine phosphorylase); assay type: biochemical; settings: 37° C., 90 minutes, pH 5.6, absorbance at 300 nm; from 0.1, 1, 10 and 100 μg/ml
T1 construct: purchased Sigma
T1 sequence (P19971 11-482): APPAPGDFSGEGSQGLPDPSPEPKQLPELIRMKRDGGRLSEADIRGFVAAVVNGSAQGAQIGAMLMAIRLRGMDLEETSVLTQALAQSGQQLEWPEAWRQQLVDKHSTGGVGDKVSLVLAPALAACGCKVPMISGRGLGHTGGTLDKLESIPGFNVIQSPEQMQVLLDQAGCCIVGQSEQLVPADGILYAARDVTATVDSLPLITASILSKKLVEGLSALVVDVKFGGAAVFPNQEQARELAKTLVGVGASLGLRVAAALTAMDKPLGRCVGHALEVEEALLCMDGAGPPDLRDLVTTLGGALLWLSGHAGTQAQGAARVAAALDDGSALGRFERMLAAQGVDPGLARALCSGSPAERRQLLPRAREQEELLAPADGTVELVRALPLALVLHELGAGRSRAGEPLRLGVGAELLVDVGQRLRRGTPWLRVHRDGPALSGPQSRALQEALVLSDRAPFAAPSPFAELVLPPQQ
Protocol: (1) 100 mmol/l of thymidine (produced by Wako Pure Chemical Industries, Ltd.), 500 mmol/l of K2HPO4 (produced by Nacalai Tesque) and 0.5 mol/l of 2-morpholinoethansulfonic acid.H2O (pH 5.6; produced by Dojindo Laboratories) were prepared.
(2) The compound of the general formula (I) was dissolved in dimethylsulfoxide solution having a concentration of at most 10%, to prepare a test sample having a concentration of the compound of the general formula (I) of 1.0 mg/ml.
(3) 5 μg/ml of human platelet derived endothelial cell growth factor (produced by Sigma) was prepared. […]
(6) Absorbance of the solution for measurement was measured by using a spectrophotometer (SPECTRA max 250: produced by Molecular Devices) at a wavelength of 300 nm.
(7) Sterile water was added to 100 μl of buffer solution having 0.5 mol/l of 2-morpholinoethansulfonic acid.H2O (pH 5.6) and 20 μl of the test sample having a concentration of the compound of the general formula (I) of 1.0 mg/ml, so that the total amount was 200 μl, to prepare a solution of the compound of the general formula (I) having a final concentration of 100 μg/ml. Absorbance of a liquid having 50 μl of 2N-NaOH added to 50 μl of the solution, as a sample for measuring background, was measured at a wavelength of 300 nm. […]

aminopeptidase N, sequence (P15144 2-967): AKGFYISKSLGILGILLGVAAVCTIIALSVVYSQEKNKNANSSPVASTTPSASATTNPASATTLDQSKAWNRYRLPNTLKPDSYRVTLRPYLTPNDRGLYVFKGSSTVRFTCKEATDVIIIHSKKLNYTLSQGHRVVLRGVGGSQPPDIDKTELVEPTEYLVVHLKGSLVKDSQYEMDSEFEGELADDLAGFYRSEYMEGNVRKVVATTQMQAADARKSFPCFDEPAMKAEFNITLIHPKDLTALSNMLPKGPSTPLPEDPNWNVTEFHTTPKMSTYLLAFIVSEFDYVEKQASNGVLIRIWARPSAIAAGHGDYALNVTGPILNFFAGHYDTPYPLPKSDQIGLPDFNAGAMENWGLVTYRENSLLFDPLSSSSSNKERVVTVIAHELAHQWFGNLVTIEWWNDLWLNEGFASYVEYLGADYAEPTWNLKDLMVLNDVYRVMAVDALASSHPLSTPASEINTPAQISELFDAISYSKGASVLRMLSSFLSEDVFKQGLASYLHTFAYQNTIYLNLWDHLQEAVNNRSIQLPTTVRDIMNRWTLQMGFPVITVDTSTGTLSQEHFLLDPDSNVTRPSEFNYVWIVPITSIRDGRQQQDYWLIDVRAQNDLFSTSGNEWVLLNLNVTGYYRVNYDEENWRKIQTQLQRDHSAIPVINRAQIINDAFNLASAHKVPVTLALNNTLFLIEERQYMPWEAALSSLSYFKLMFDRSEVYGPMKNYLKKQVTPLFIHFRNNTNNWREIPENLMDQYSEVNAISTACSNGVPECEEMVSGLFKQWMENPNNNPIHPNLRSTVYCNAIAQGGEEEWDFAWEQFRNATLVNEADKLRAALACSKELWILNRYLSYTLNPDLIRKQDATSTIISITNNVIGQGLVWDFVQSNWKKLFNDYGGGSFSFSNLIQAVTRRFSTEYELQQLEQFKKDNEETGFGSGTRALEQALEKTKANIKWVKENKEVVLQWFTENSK

| SMILES | Aminopeptidase N inhibiting activity IC50 (aminopeptidase N) | IC50 [1] |
| --- | --- | --- |
| CSc1ccccc1N1C(=O)c2cccc(O)c2C1=O [Compound 194] | 38 mg/L | – |
| O=C1Cc2ccccc2C(=O)N1c1ccccc1 [Compound A-1, N-phenyl-homophthalimide] | – | 160 µM |
| Cc1cccc(C)c1N1C(=O)Cc2ccccc2C1=O [Compound A-2, N-(2,6-dimethylphenyl)-homophthalimide] | – | 230 µM |
